Values belong to the molecule of their own block, whether it stands above or below them.
System: 292921-168-R-J2-PDC complex spheroid growth
Test: Anticancer human tumor 292921-168-R-J2-PDC patient-derived pancreatic carcinoma cell line growth inhibition [AhR]
Conditions: for IC50: curve of first compound; for viability, T/C: stronger effect = lower value
Outline: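 Spheroids combined tumor cells with HUVEC endothelial cells and human MSCs as stroma. AhR antagonists were paired with standard or investigational drugs, each dosed in half-log steps down from near clinical Cmax, or from 10 microM where Cmax was unknown.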

[1] = second compound 0.1 µM, first compound 0.0316 µM
[2] = second compound 0.1 µM, first compound 0.1 µM
[3] = second compound 0.1 µM, first compound 0.316 µM
[4] = second compound 0.1 µM, first compound 1 µM
[5] = second compound 0.1 µM, first compound 3.16 µM
[6] = second compound 0.1 µM, first compound 10 µM
[7] = second compound 0.316 µM, first compound 0.0316 µM
[8] = second compound 0.316 µM, first compound 0.1 µM
[9] = second compound 0.316 µM, first compound 0.316 µM
[10] = second compound 0.316 µM, first compound 1 µM
[11] = second compound 0.316 µM, first compound 3.16 µM
[12] = second compound 0.316 µM, first compound 10 µM
[13] = second compound 1 µM, first compound 0.0316 µM
[14] = second compound 1 µM, first compound 0.1 µM
[15] = second compound 1 µM, first compound 0.316 µM
[16] = second compound 1 µM, first compound 1 µM
[17] = second compound 1 µM, first compound 3.16 µM
[18] = second compound 1 µM, first compound 10 µM
[19] = second compound 3.16 µM, first compound 0.0316 µM
[20] = second compound 3.16 µM, first compound 0.1 µM
[21] = second compound 3.16 µM, first compound 0.316 µM
[22] = second compound 3.16 µM, first compound 1 µM
[23] = second compound 3.16 µM, first compound 3.16 µM
[24] = second compound 3.16 µM, first compound 10 µM
[25] = second compound 10 µM, first compound 0.0316 µM
[26] = second compound 10 µM, first compound 0.1 µM
[27] = second compound 10 µM, first compound 0.316 µM
[28] = second compound 10 µM, first compound 1 µM
[29] = second compound 10 µM, first compound 3.16 µM
[30] = second compound 10 µM, first compound 10 µM
[31] = second compound 0.1 µM, first compound 0.00316 µM
[32] = second compound 0.1 µM, first compound 0.01 µM
[33] = second compound 0.316 µM, first compound 0.00316 µM
[34] = second compound 0.316 µM, first compound 0.01 µM
[35] = second compound 1 µM, first compound 0.00316 µM
[36] = second compound 1 µM, first compound 0.01 µM
[37] = second compound 3.16 µM, first compound 0.00316 µM
[38] = second compound 3.16 µM, first compound 0.01 µM
[39] = second compound 10 µM, first compound 0.00316 µM
[40] = second compound 10 µM, first compound 0.01 µM
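Note: spheroids exposed to compounds for seven days after three days of growth.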

IC50 (second compound 0.1 µM): > 10000 nM
IC50 (second compound 0.316 µM): > 10000 nM
IC50 (second compound 1 µM): > 10000 nM
IC50 (second compound 3.16 µM): > 10000 nM
IC50 (second compound 10 µM): > 10000 nM
SMILES: CC(C)c1c(-c2ccccc2)nc2c(C#N)c[nH]n2c1=O + CC(CO)NC(=O)c1cc(-c2ccc(Cl)cc2)nn(-c2cnn(C)c2)c1=O
viability, T/C [1]: 104%
viability, T/C [2]: 105%
viability, T/C [3]: 104%
viability, T/C [4]: 105%
viability, T/C [5]: 109%
viability, T/C [6]: 101%
viability, T/C [7]: 103%
viability, T/C [8]: 102%
viability, T/C [9]: 99.6%
viability, T/C [10]: 96%
viability, T/C [11]: 101%
viability, T/C [12]: 89.5%
viability, T/C [13]: 109%
viability, T/C [14]: 102%
viability, T/C [15]: 104%
viability, T/C [16]: 97.1%
viability, T/C [17]: 94.9%
viability, T/C [18]: 99.6%
viability, T/C [19]: 86.8%
viability, T/C [20]: 91.9%
viability, T/C [21]: 94.1%
viability, T/C [22]: 89.8%
viability, T/C [23]: 80.8%
viability, T/C [24]: 84.2%
viability, T/C [25]: 69.7%
viability, T/C [26]: 67.3%
viability, T/C [27]: 71.2%
viability, T/C [28]: 63.8%
viability, T/C [29]: 62.6%
viability, T/C [30]: 68.5%

IC50 (second compound 0.1 µM): 22.9 nM
IC50 (second compound 0.316 µM): 18.6 nM
IC50 (second compound 1 µM): 18.5 nM
IC50 (second compound 3.16 µM): 13.9 nM
IC50 (second compound 10 µM): 12.7 nM
SMILES: CC[C@@]1(O)C(=O)OCc2c1cc1n(c2=O)Cc2cc3c(CN(C)C)c(O)ccc3nc2-1 + Cc1ccccc1N=Nc1ccc(NC(=O)c2ccnn2C)c(C)c1
viability, T/C (second compound 0.1 µM, first compound 0.000316 µM): 90.9%
viability, T/C (second compound 0.1 µM, first compound 0.001 µM): 90.8%
viability, T/C [31]: 82.5%
viability, T/C [32]: 79.5%
viability, T/C [1]: 38.7%
viability, T/C [2]: 16.8%
viability, T/C (second compound 0.316 µM, first compound 0.000316 µM): 82.9%
viability, T/C (second compound 0.316 µM, first compound 0.001 µM): 92.5%
viability, T/C [33]: 81.2%
viability, T/C [34]: 66.2%
viability, T/C [7]: 36.2%
viability, T/C [8]: 18.6%
viability, T/C (second compound 1 µM, first compound 0.000316 µM): 86.6%
viability, T/C (second compound 1 µM, first compound 0.001 µM): 88%
viability, T/C [35]: 76.9%
viability, T/C [36]: 62.9%
viability, T/C [13]: 39.1%
viability, T/C [14]: 15.6%
viability, T/C (second compound 3.16 µM, first compound 0.000316 µM): 76%
viability, T/C (second compound 3.16 µM, first compound 0.001 µM): 70.4%
viability, T/C [37]: 67.1%
viability, T/C [38]: 58.2%
viability, T/C [19]: 32.8%
viability, T/C [20]: 14.1%
viability, T/C (second compound 10 µM, first compound 0.000316 µM): 54.4%
viability, T/C (second compound 10 µM, first compound 0.001 µM): 61.1%
viability, T/C [39]: 52.6%
viability, T/C [40]: 55.6%
viability, T/C [25]: 28.9%
viability, T/C [26]: 16.2%

IC50 (second compound 0.1 µM): 396 nM
IC50 (second compound 0.316 µM): 409 nM
IC50 (second compound 1 µM): 355 nM
IC50 (second compound 3.16 µM): 181 nM
IC50 (second compound 10 µM): 105 nM
SMILES: COc1cc(C2c3cc4c(cc3C(OC3OC5COC(C)OC5C(O)C3O)C3COC(=O)C23)OCO4)cc(OC)c1O (stereo not given) + Cc1ccccc1N=Nc1ccc(NC(=O)c2ccnn2C)c(C)c1
viability, T/C [1]: 92.5%
viability, T/C [2]: 85.8%
viability, T/C [3]: 51.6%
viability, T/C [4]: 30.8%
viability, T/C [5]: 18%
viability, T/C [6]: 10.8%
viability, T/C [7]: 86.3%
viability, T/C [8]: 71%
viability, T/C [9]: 58.7%
viability, T/C [10]: 29.9%
viability, T/C [11]: 14.8%
viability, T/C [12]: 11.7%
viability, T/C [13]: 75.6%
viability, T/C [14]: 72.2%
viability, T/C [15]: 52.3%
viability, T/C [16]: 26.3%
viability, T/C [17]: 19.2%
viability, T/C [18]: 10.9%
viability, T/C [19]: 63.4%
viability, T/C [20]: 60.8%
viability, T/C [21]: 40.5%
viability, T/C [22]: 25.5%
viability, T/C [23]: 16.4%
viability, T/C [24]: 9.21%
viability, T/C [25]: 60.8%
viability, T/C [26]: 52.7%
viability, T/C [27]: 27.2%
viability, T/C [28]: 23.3%
viability, T/C [29]: 18.9%
viability, T/C [30]: 11.1%

IC50 (second compound 0.1 µM): < 31.6 nM
IC50 (second compound 0.316 µM): < 31.6 nM
IC50 (second compound 1 µM): < 31.6 nM
IC50 (second compound 3.16 µM): < 31.6 nM
IC50 (second compound 10 µM): < 31.6 nM
SMILES: COc1cccc2c1C(=O)c1c(O)c3c(c(O)c1C2=O)CC(O)(C(=O)CO)CC3OC1CC(N)C(O)C(C)O1 (stereo not given) + Cc1ccccc1N=Nc1ccc(NC(=O)c2ccnn2C)c(C)c1
viability, T/C [1]: 24.3%
viability, T/C [2]: 17%
viability, T/C [3]: 5.13%
viability, T/C [4]: 0.17%
viability, T/C [5]: 0.69%
viability, T/C [6]: 1.91%
viability, T/C [7]: 20.1%
viability, T/C [8]: 15.5%
viability, T/C [9]: 4.33%
viability, T/C [10]: 0.12%
viability, T/C [11]: 0.59%
viability, T/C [12]: 2.35%
viability, T/C [13]: 23.3%
viability, T/C [14]: 16.1%
viability, T/C [15]: 2.12%
viability, T/C [16]: 3.61%
viability, T/C [17]: 0.65%
viability, T/C [18]: 5.48%
viability, T/C [19]: 19%
viability, T/C [20]: 13.9%
viability, T/C [21]: 1.59%
viability, T/C [22]: 5.2%
viability, T/C [23]: 0.73%
viability, T/C [24]: 1.88%
viability, T/C [25]: 17.2%
viability, T/C [26]: 12.1%
viability, T/C [27]: 0.42%
viability, T/C [28]: 0.36%
viability, T/C [29]: 1.18%
viability, T/C [30]: 4.37%

IC50 (second compound 0.1 µM): < 31.6 nM
IC50 (second compound 0.316 µM): < 31.6 nM
IC50 (second compound 1 µM): < 31.6 nM
IC50 (second compound 3.16 µM): < 31.6 nM
IC50 (second compound 10 µM): < 31.6 nM
SMILES: Nc1ccn(C2OC(CO)C(O)C2(F)F)c(=O)n1 (stereo not given) + Cc1ccccc1N=Nc1ccc(NC(=O)c2ccnn2C)c(C)c1
viability, T/C [1]: 8.08%
viability, T/C [2]: 7.37%
viability, T/C [3]: 8.63%
viability, T/C [4]: 7.79%
viability, T/C [5]: 8.32%
viability, T/C [6]: 6.76%
viability, T/C [7]: 8.99%
viability, T/C [8]: 7.65%
viability, T/C [9]: 8.65%
viability, T/C [10]: 8.07%
viability, T/C [11]: 8.01%
viability, T/C [12]: 7.23%
viability, T/C [13]: 8.29%
viability, T/C [14]: 8.55%
viability, T/C [15]: 9.53%
viability, T/C [16]: 8.8%
viability, T/C [17]: 11.7%
viability, T/C [18]: 7.88%
viability, T/C [19]: 8.95%
viability, T/C [20]: 7.07%
viability, T/C [21]: 7.3%
viability, T/C [22]: 10.1%
viability, T/C [23]: 8.53%
viability, T/C [24]: 5.4%
viability, T/C [25]: 8.79%
viability, T/C [26]: 9.42%
viability, T/C [27]: 7.46%
viability, T/C [28]: 10.9%
viability, T/C [29]: 9.28%
viability, T/C [30]: 6.09%

IC50 (second compound 0.1 µM): > 1000 nM
IC50 (second compound 0.316 µM): > 1000 nM
IC50 (second compound 1 µM): > 1000 nM
IC50 (second compound 3.16 µM): > 1000 nM
IC50 (second compound 10 µM): > 1000 nM
SMILES: Nc1ncn(C2CC(O)C(CO)O2)c(=O)n1 (stereo not given) + Cc1ccccc1N=Nc1ccc(NC(=O)c2ccnn2C)c(C)c1
viability, T/C [31]: 90.2%
viability, T/C [32]: 94.2%
viability, T/C [1]: 101%
viability, T/C [2]: 86%
viability, T/C [3]: 73.5%
viability, T/C [4]: 72.9%
viability, T/C [33]: 96.9%
viability, T/C [34]: 86.9%
viability, T/C [7]: 87%
viability, T/C [8]: 76.5%
viability, T/C [9]: 76%
viability, T/C [10]: 78.6%
viability, T/C [35]: 80.1%
viability, T/C [36]: 104%
viability, T/C [13]: 84.2%
viability, T/C [14]: 79.6%
viability, T/C [15]: 77.2%
viability, T/C [16]: 72.4%
viability, T/C [37]: 80.2%
viability, T/C [38]: 82.7%
viability, T/C [19]: 66.3%
viability, T/C [20]: 72.2%
viability, T/C [21]: 63%
viability, T/C [22]: 55.6%
viability, T/C [39]: 63%
viability, T/C [40]: 65.3%
viability, T/C [25]: 58.7%
viability, T/C [26]: 61.6%
viability, T/C [27]: 62.8%
viability, T/C [28]: 45%

From PubChem BioAssay AID1918994 (Molecular Pharmacology Branch, DTP, NCI, 2023)
